Assay results published in PubChem BioAssay (NCI).
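Where inhibition never reached the appropriate level, the endpoint shown equals the highest concentration tested. Otherwise, values were interpolated linearly from a five-concentration, 48-hour dose response in 96-well plates. At the GI50, growth is halved. TGI marks complete inhibition of growth.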

Legend:
Assay in all cases: inhibition of tumour cell growth, NCI panel, 48 h
ACHN renal = tested on: ACHN renal
DU-145 prostate = tested on: DU-145 prostate
MALME-3M melanoma = tested on: MALME-3M melanoma
NCI-H23 lung = tested on: NCI-H23 lung
NCI/ADR-RES ovarian = tested on: NCI/ADR-RES ovarian
OVCAR-4 ovarian = tested on: OVCAR-4 ovarian
RXF 393 renal = tested on: RXF 393 renal
SK-OV-3 ovarian = tested on: SK-OV-3 ovarian
SN12C renal = tested on: SN12C renal
U251 CNS = tested on: U251 CNS

Compound	GI50 (ACHN renal)	TGI (ACHN renal)	GI50 (DU-145 prostate)	TGI (DU-145 prostate)	GI50 (MALME-3M melanoma)	TGI (MALME-3M melanoma)	GI50 (NCI-H23 lung)	TGI (NCI-H23 lung)	GI50 (NCI/ADR-RES ovarian)	TGI (NCI/ADR-RES ovarian)	GI50 (OVCAR-4 ovarian)	TGI (OVCAR-4 ovarian)	GI50 (RXF 393 renal)	TGI (RXF 393 renal)	GI50 (SK-OV-3 ovarian)	TGI (SK-OV-3 ovarian)	GI50 (SN12C renal)	TGI (SN12C renal)	GI50 (U251 CNS)	TGI (U251 CNS)
CCCN(CCS(C)(=O)=O)Cc1ccc(-c2ccc3ncnc(Nc4ccc(OCc5cccc(F)c5)c(Cl)c4)c3c2)o1	1.23 µM	> 25 µM	> 22.4 µM	> 25 µM	> 25 µM	> 25 µM	> 25 µM	> 25 µM	12 µM	> 25 µM	21.3 µM	> 25 µM	24.9 µM	> 25 µM	0.0197 µM	0.192 µM	> 25 µM	> 25 µM	> 25 µM	> 25 µM
COc1cc2c(cc1C1COc3cc4occc4cc3C1=O)OCO2 (stereo not drawn)		> 100 µM		> 100 µM		> 100 µM		> 100 µM		> 100 µM		36.5 µM		> 100 µM		> 100 µM		> 100 µM		> 100 µM
O=C(OCc1ccc2ccccc2n1)c1cn(C2CC2)c2cc(N3CCN(Cc4ccc5ccccc5n4)CC3)c(F)cc2c1=O	> 72.4 µM	> 100 µM	6.09 µM	> 100 µM	33.2 µM	> 84.2 µM	42.3 µM	> 88.6 µM	61.5 µM	> 100 µM	> 100 µM	> 100 µM	63.6 µM	> 100 µM	> 80.7 µM	> 100 µM	> 100 µM	> 100 µM	56.7 µM	> 100 µM
CC#CCC1CCC(OCC)=CC1=O (stereo not drawn)		> 100 µM						> 100 µM				> 100 µM		> 100 µM		> 100 µM		> 100 µM		> 100 µM
C/C(=C\c1ccc2ccccc2c1)[N+](=O)[O-]	1.79 µM	3.34 µM	1.91 µM	3.54 µM	2.07 µM	3.97 µM			7.75 µM	23.7 µM	1.65 µM	3.01 µM	1.65 µM	3.06 µM	14.8 µM	28.7 µM	1.74 µM	3.23 µM	1.77 µM	3.6 µM
N#CC1(C(N)=O)C(c2ccc(Cl)cc2)CC(=O)CC1c1ccc(Cl)cc1 (stereo not drawn)	21.8 µM	57.8 µM	15.6 µM	29 µM	15.7 µM	33.4 µM			39.7 µM	> 100 µM	17.5 µM	35.6 µM			20.3 µM	45 µM	19.4 µM	35.3 µM	16.6 µM	31.6 µM
N#CC(C#N)=C1NC(=O)CC(=O)N1						> 100 µM		> 100 µM				> 100 µM		> 100 µM		> 100 µM		> 100 µM		> 100 µM
COc1ccc(-c2[nH]c3ccccc3c2-c2ccc(OC)cc2)cc1	11.9 µM	28.3 µM	3.58 µM	11.4 µM			6.26 µM	26.2 µM	3.82 µM	15 µM	7.66 µM	23.6 µM			5.85 µM	26.6 µM	6.73 µM	23.5 µM	4.54 µM	16.8 µM
O=C1c2c(c3c4ccccc4[nH]c3c3ccc4ccccc4c23)C(=O)N1CCN1CCNCC1	1.56 µM	2.9 µM	1.73 µM	3.25 µM	1.57 µM	3.18 µM	1.84 µM	3.7 µM			1.65 µM	3.26 µM	1.76 µM	3.39 µM	1.86 µM	3.58 µM	1.68 µM	3.13 µM	1.64 µM	3.21 µM
O=C(NN1C(=O)CSC12CCCCC2)c1[nH]c2ccc(Br)cc2c1-c1ccccc1	22.6 µM	58.1 µM	19.1 µM	38.8 µM	20.3 µM	41.3 µM	19.4 µM	41.5 µM			13.3 µM	39.6 µM	14.2 µM	30.3 µM	46.3 µM	> 100 µM	17.6 µM	34.9 µM	15.8 µM	31.9 µM
COc1cccc(OC(=O)c2ccc(C(F)(F)F)nc2Nc2cc(Cl)ccc2C)c1	15.6 µM	> 100 µM	9.01 µM	> 100 µM			20.2 µM	49.5 µM	19.6 µM	> 100 µM	> 100 µM	> 100 µM	0.245 µM	0.987 µM	11.1 µM	80.7 µM	29.2 µM	> 100 µM	8.13 µM	> 100 µM
COc1ccc(C=O)c([N+](=O)[O-])c1		> 100 µM				> 100 µM		> 100 µM				> 100 µM		> 100 µM		> 100 µM		> 100 µM		> 100 µM
N#CC(=C1C=CC(=NO)C=C1)c1ccc(Cl)cc1		24.9 µM				60.7 µM		75.3 µM				60.4 µM		36.5 µM		48.9 µM		58.7 µM		34.3 µM
O=C1C(=C([O-])c2ccccc2)C(=O)c2ccccc21.O=C1C(=C([O-])c2ccccc2)C(=O)c2ccccc21.[Fe+2]	> 100 µM	> 100 µM			> 100 µM	> 100 µM	58.8 µM	> 100 µM			> 100 µM	> 100 µM			> 100 µM	> 100 µM	> 100 µM	> 100 µM	54.9 µM	> 100 µM
Cc1cccc(C)c1NC(=O)/C(=N/NC(N)=S)C(C)C(=O)c1ccc(Cl)cc1 (stereo not drawn)		> 100 µM				> 100 µM		> 100 µM				> 100 µM				> 100 µM		> 100 µM		> 100 µM
CC/C=C\C/C=C\C/C=C\CCCCCCCC(=O)OCC(O)CO (stereo not drawn)		> 72.5 µM				> 100 µM		> 100 µM				> 100 µM		> 100 µM		> 100 µM		> 100 µM		> 73.7 µM
